Tests used:
[1] = test system: KRAS G12D mutant AGS cells; test: Proliferation inhibition of AGS cells, CellTiter-Glo assay; type: cell-based, human; settings: Homo sapiens, AGS, 72 h, 3 days, CTG; read-out: AGS IC50/nM
In short: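 AGS cells at 1500 cells/well in F12K + 10% FBS were exposed for 3 days at 37°C to nine 3-fold dilutions from 10 µM top concentration, in duplicate. Viability read by CellTiter-Glo luminescence; IC50 (nM) from dose-response-inhibition fitting.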

[2] = test system: KRAS G12V mutant NCI-H727 cells; test: Proliferation inhibition of NCI-H727 cells, 3D CellTiter-Glo assay (Method B); type: cell-based, human; settings: Homo sapiens, NCI-H727, 120 h, Method B; 3D culture with 0.65% methylcellulose, 5 days, CTG; read-out: NCI-H727 IC50/nM
In short: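 Cells grown in 3D medium (RPMI-1640, 10% FBS, 0.65% methylcellulose) overnight, then treated 5 days at 37 °C, 5% CO2 with 9 threefold dilutions from 10 µM top working concentration, duplicate wells. CellTiter-Glo luminescence read; IC50 (nM) fitted by dose-response-inhibition equation.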

[3] = Pharmacokinetics in mice; settings: mouse, po
Method: Male CD-1 mice, aged 6-8 weeks, were purchased from Zhejiang Vital River Laboratory Animal Co., Ltd.
For the PO administration group, compounds were formulated in 0.5% Tween 80 and 99.5% (0.5%MC (400cp)) vehicle or 0.5%MC (400cp) vehicle to a final concentration of 1 mg/mL or 2 mg/mL for each compound. The drug formulation was administered to CD-1 mice via gavage at a dose of 10 mL/kg. Blood samples were collected from the submandibular vein or other suitable means at 15 min, 30 min, 1 h, 2 h, 4 h, 6 h, 8 h, and 24 h after administration. The blood samples were centrifuged at low temperature for 5 minutes, and the plasma was collected and stored at -80°C for analysis.
10 µL of plasma sample was taken, 200 µL of methanol containing an internal standard as a precipitant was added to precipitate plasma proteins, the compounds to be tested in the plasma was extracted, centrifuged at low temperature, and 10 µL of the supernatant was injected. The drug concentration in blood plasma was analyzed by LC-MS/MS. The pharmacokinetic parameters were calculated using Winnonlin based on the blood drug concentration data at different time points.

[4] = test system: human lung cancer cells NCI-H441 with KRAS-G12V mutation; test: Antitumor effect in NCI-H441 subcutaneous xenograft model; type: in vivo, NU/NU mice; settings: 20 mpk, PO; for Tumor volume (mm^3) (day 16): BID×17; for TGI%: BID×17, day 16
Method: NCI-H441 cells were purchased from ATCC (catalog number: HTB-174). Male NU/NU mice were purchased from Jiangsu Jicui Yaokang Biotechnology Co., Ltd.
NCI-H441 cells were cultured in RPMI-1640 medium containing 10% FBS. Cells in the logarithmic growth phase were collected and resuspended in PBS to an appropriate concentration for subcutaneous tumor inoculation in mice. Experimental mice were subcutaneously inoculated in the right posterior back at a seeding density of 1×10^6 cells/mouse+Matrigel, with a seeding volume of 0.1 mL. When the average tumor volume reached ~150 mm^3, mice were randomly assigned to groups based on tumor size and body weight for drug administration. Drug administration began immediately after grouping, and the day of administration was considered day 0. The drug was administered to the mice twice daily via gavage at doses of 10 mpk, 20 mpk, 30 mpk, or a solvent control (0.5% Tween 80+99.5% of 0.5% MC (400 cp) or 0.5% MC (400 cp)). During the experiment, mouse body weight and tumor size were measured twice weekly. Tumor size was calculated using the formula: Tumor volume (mm^3)=0.5×(Tumor long diameter × Tumor short diameter^2). Relative tumor inhibition rate (TGI) (%): TGI%=[1-(Average tumor volume at the end of treatment in a given treatment group - Average tumor volume at the start of treatment in the treatment group) / (Average tumor volume at the end of treatment in the solvent control group - Average tumor volume at the start of treatment in the solvent control group)] × 100%.

[5] = test system: human pancreatic cancer cells HPAC; settings: po, 20 mg/kg, 408 h
Method: The following materials were used in this experiment: NOD/SCID mice, 6-8 weeks old, female, Jiangsu Jicui Yaokang Biotechnology Co., Ltd.; HPAC cells (carrying KRas G12D mutant protein, ATCC); Captisol (Wuhan Fengyao Tonghui Chemical Products Co., Ltd., Cas#182410-00-0); sodium acetate (aladdin) MC (sigma, 9004-67-5).
The experiment was conducted as follows: 6- to 8- week-old female NOD/SCID mice were subcutaneously inoculated with 1×10^7 HPAC cells in their right posterior back, with an inoculation volume of 0.1 mL. When the tumor reached an average volume of 150 mm^3, mice were randomly assigned to groups based on tumor size and body weight for drug administration. The day of drug administration was considered day 0. The test compound was administered by gavage to four mice in each group, while the control group received an equal volume of the solvent via gavage.
During the experiment, tumor volume and body weight were measured twice a week. Tumor volume was calculated using the formula: Tumor volume (mm^3)=0.5×(tumor long diameter×tumor short diameter^2). The mean tumor inhibition rate (TGI%) was calculated as follows: [(average tumor volume in the control group-average initial tumor volume in the control group)-(average tumor volume in the treatment group - average initial tumor volume in the treatment group)] / (average tumor volume in the control group - average initial tumor volume in the control group).

[6] = test system: KRAS G12S mutant A549 cells; test: Proliferation inhibition of A549 cells, 3D CellTiter-Glo assay; type: cell-based; settings: Homo sapiens, A549, 120 h, read-out: A549 IC50/nM
Method: A549 cells (Nanjing Kebai Biotechnology Co., Ltd., catalog number CBP60084, adherent, culture medium (F12K Nutrient Mixture+10%FBS (GIBCO, Cat#10091-148) at 37°C, 5%CO2, and 95% humidity.
3D Cell Viability Assay: Cells in the logarithmic growth phase were harvested and counted using a platelet counter. Cell viability was assessed using the trypan blue exclusion method to ensure a viability of over 90%. The 3D cell culture medium was prepared by adding 1% MC (methylcellulose, Sigma, Cat#M0512) F-12K medium and 10% FBS. The cell concentration was adjusted to approximately 7407 cells/mL using the 3D medium, and the methylcellulose (MC) content was set to 0.65%. Then, 135 µL of cell suspension was added to each 96-well clear, flat-bottomed, black-walled plate (Greiner, Cat#655096). The cells in the 96-well plates were cultured overnight at 37°C with 5% CO2.
Drug preparation for IC50 assay: A 10-fold drug solution was prepared using culture medium. […] of the drug solution was added to each well of a 96-well plate seeded with cells to achieve a working concentration of up to 10 µM, with a 3× dilution, and 9 concentrations. 2 replicate wells for each drug concentration were set. The cells in the drug-treated 96-well plates were cultured at 37°C and 5% CO^2 for additional5 days, then CTG assay (CellTiter-Glo® Luminescent Cell Viability Assay (Promega, Cat#G7573)) were performed.
The cell plate was equilibrated to room temperature for 30 minutes and the CTG reagent was thawed. 75 µL of CTG solution was added to each well for detection, and the plate was shaken on an orbital shaker for 5 minutes to lyse the cells. The cell plate was placed at room temperature for 25 minutes to stabilize the cryo-luminescence signal and the cryo-luminescence value was read (EnVision® multi-plate reader, PerkinElmer#2105).
Data was analyzed using GraphPad Prism software. The dose-response-inhibition equation was used to fit the data to obtain the dose-response curve, and the IC50 value (nM) was calculated accordingly. [formula]

Compound | IC50 [1] [nM] | IC50 [2] [nM] | AUC(0-t) at 8 h ([3]; plasma, 20 mg/kg) [ng·h/mL] | further results
CCN1CC/C(=C\F)[C@](C)(COc2nc(N3Cc4c(COC)c(C(=O)N(C)C)nn4CC[C@@H]3C)c3cc(Cl)c(-c4c(F)ccc5sc(N)c(C#N)c45)c(C(F)F)c3n2)C1 (atropisomer, axis not shown) [Example 241A] | 8.3 | 6.5 | 1660 | 
[2H]C([2H])([2H])C([2H])([2H])N1CC/C(=C\F)[C@](C)(COc2nc(N3Cc4c(COC)c(C(=O)N(C)C)nn4CC[C@@H]3C)c3cc(Cl)c(-c4c(F)ccc5sc(N)c(C#N)c45)c(F)c3n2)C1 (atropisomer, axis not shown) [Example 243A] | < 1.5 | < 1.5 | 9960 | 
CCN1CC/C(=C\F)[C@](C)(COc2nc(N3Cc4cc(C(=O)N(C)C)nn4CC[C@@H]3C)c3cc(Cl)c(-c4c(F)ccc5sc(N)c(C#N)c45)c(F)c3n2)C1 (atropisomer, axis not shown) [Example 246A] | < 1.5 | < 1.5 | 1040 | 
[2H]C([2H])([2H])C([2H])([2H])N1CC/C(=C\F)[C@](C)(COc2nc(N3Cc4c(COC)c(C(=O)N(C)C)nn4CC[C@@H]3C)c3cc(Cl)c(-c4c(F)ccc5sc(N)c(C#N)c45)c(C)c3n2)C1 (atropisomer, axis not shown) [Example 249A] | 2.3 | < 1.5 |  | AUC(0-t) at 8 h ([3]; in vivo, 20 mg/kg): 5360 ng·h/mL
[2H]C([2H])([2H])N1CCC(=CF)C(C)(COc2nc(N3CCCn4nc(C(=O)N(C)C)c(Cl)c4C3)c3cc(CC)c(-c4c(F)ccc5sc(N)c(C#N)c45)c(F)c3n2)C1 (atropisomer, axis not shown) [Example 265A] | < 1.5 | 2.8 |  | Tumor volume (mm^3) (day 16) [4]: 330 mm^3; TGI% [4]: 57%; TGI% [5]: 80%; Tumor volume (mm^3) (day 17) [5]: 237 mm^3
CCc1cc2c(N3Cc4cc(C(=O)N(C)C)nn4CC[C@@H]3C)nc(OC[C@]3(C)CN(CC)CC/C3=C\F)nc2c(F)c1-c1c(F)ccc2sc(N)c(C#N)c12 (single isomer, unassigned) [Example 175A] | < 1.5 | < 1.5 |  | Tumor volume (mm^3) (day 16) [4]: 266 mm^3; TGI% [4]: 73%; IC50 [6]: 23.3 nM
CCN1CC/C(=C\F)[C@](C)(COc2nc(N3Cc4cc(C(=O)N(C)C)nn4CC[C@@H]3C)c3cc(Cl)c(-c4c(F)ccc5sc(N)c(C#N)c45)c(C)c3n2)C1 (single isomer, unassigned) [Example 178A] | 1.9 | < 1.5 |  | AUC(0-t) at 8 h ([3]; plasma, 10 mg/kg): 1190 ng·h/mL
CCN1CC/C(=C\F)[C@](C)(COc2nc(N3Cc4c(COC)c(C(=O)N(C)C)nn4CC[C@@H]3C)c3cc(Cl)c(-c4c(F)ccc5sc(N)c(C#N)c45)c(C)c3n2)C1 (single isomer, unassigned) [Example 229A] | 1.7 | < 1.5 |  | AUC(0-t) at 8 h ([3]; in vivo, 20 mg/kg): 4490 ng·h/mL
CCN1CC/C(=C\F)[C@](C)(COc2nc(N3Cc4c(O)c(C(=O)N(C)C)nn4CC[C@@H]3C)c3cc(Cl)c(-c4c(F)ccc5sc(N)c(C#N)c45)c(F)c3n2)C1 (single isomer, unassigned) [Example 233A] | < 1.5 | < 1.5 |  | AUC(0-t) at 8 h ([3]; in vivo, 20 mg/kg): 822 ng·h/mL
[2H]C([2H])([2H])N(C(=O)c1nn2c(c1COC)CN(c1nc(OC([2H])([2H])[C@]3(C)CN(CC)CC/C3=C\F)nc3c(F)c(-c4c(F)ccc5sc(N)c(C#N)c45)c(Cl)cc13)[C@@H](C)CC2)C([2H])([2H])[2H] (single isomer, unassigned) [Example 235A] | < 1.5 | < 1.5 | 2990 | 
CCOc1c(C(=O)N(C)C)nn2c1CN(c1nc(OC[C@]3(C)CN(CC)CC/C3=C\F)nc3c(F)c(-c4c(F)ccc5sc(N)c(C#N)c45)c(Cl)cc13)[C@@H](C)CC2 (single isomer, unassigned) [Example 236A] | 2.7 | 1.5 | 2820 | 
CCN1CC/C(=C\F)[C@](C)(COc2nc(N3Cc4c(COC)c(C(=O)N(C)C)nn4CC[C@@H]3C)c3cc(Cl)c(-c4c(F)cc(F)c5sc(N)c(C#N)c45)c(F)c3n2)C1 (single isomer, unassigned) [Example 237A] | < 1.5 | < 1.5 | 3910 | 
CC[C@H]1CCn2nc(C(=O)N(C)C)c(COC)c2CN1c1nc(OC[C@]2(C)CN(CC)CC/C2=C\F)nc2c(F)c(-c3c(F)ccc4sc(N)c(C#N)c34)c(Cl)cc12 (single isomer, unassigned) [Example 240A] | 2.5 | < 1.5 | 2920 | 
CCN1CC/C(=C\F)[C@](C)(COc2nc(N3CCCn4nc(C(=O)N(C)C)c(Cl)c4C3)c3cc(Cl)c(-c4c(F)ccc5sc(N)c(C#N)c45)c(F)c3n2)C1 (single isomer, unassigned) [Example 256A] | 1.5 | < 1.5 | 1380 | 
[2H]C([2H])([2H])N1CC/C(=C\F)[C@](C)(COc2nc(N3Cc4c(COC)c(C(=O)N(C)C)nn4CC[C@@H]3C)c3cc(CC)c(-c4c(F)ccc5sc(N)c(C#N)c45)c(F)c3n2)C1 (single isomer, unassigned) [Example 258A] | 1.9 | < 1.5 | 1320 | 
CCN1CC/C(=C\F)[C@](C)(COc2nc(N3Cc4cc(C(C)=O)nn4CC[C@@H]3C)c3cc(Cl)c(-c4c(F)ccc5sc(N)c(C#N)c45)c(F)c3n2)C1 (single isomer, unassigned) [Example 268A] | 3.5 | 4 |  | AUC(0-t) at 8 h ([3]; plasma, 10 mg/kg): 907 ng·h/mL
CN1CC/C(=C\F)[C@](C)(COc2nc(N3CCCn4nc(C(=O)N(C)C)c(C#N)c4C3)c3cc(C(F)(F)F)c(-c4c(F)ccc5sc(N)c(C#N)c45)c(F)c3n2)C1 [Example 150] | < 1.5 | < 1.5 |  | IC50 [6]: 40.3 nM
CN1CC/C(=C\F)[C@](C)(COc2nc(N3CCCn4nc(C(=O)N(C)C)c(Cl)c4C3)c3cc(C(F)(F)F)c(-c4c(F)ccc5sc(N)c(C#N)c45)c(F)c3n2)C1 [Example 160] | < 1.5 | < 1.5 |  | IC50 [6]: 11.1 nM
CCN1CCC(C(F)F)C(C)(COc2nc(N3Cc4c(COC)c(C(=O)N(C)C)nn4CCC3C)c3cc(Cl)c(-c4c(F)ccc5sc(N)c(C#N)c45)c(F)c3n2)C1 (stereo not shown) [Example 251A] | 1.8 | < 1.5 | 1960 | 
[2H]C([2H])([2H])N1CCC(=CF)C(C)(COc2nc(N3Cc4cc(C(=O)N(C)C)nn4CCC3C)c3cc(Cl)c(-c4c(F)ccc5sc(N)c(C#N)c45)c(F)c3n2)C1 (stereo not shown) [Example 255A] | < 1.5 | < 1.5 |  | Tumor volume (mm^3) (day 16) [4]: 259 mm^3; TGI% [4]: 74%
[2H]C([2H])([2H])N1CC/C(=C\F)[C@](C)(COc2nc(N3CCCn4nc(C(=O)N(C)C)c(Cl)c4C3)c3cc(C4CC4)c(-c4c(F)ccc5sc(N)c(C#N)c45)c(F)c3n2)C1 [Example 266A] | < 1.5 | 3 |  | Tumor volume (mm^3) (day 16) [4]: 307 mm^3; TGI% [4]: 63%
